From patent publication US10799521B2, “Use of icaritin in preparing medicament for preventing or treating hematocytopenia” (Lunan Pharmaceutical Group Corporation, priority 2013, dated 2020) come the findings set out here.

Details of series [1]: species or system Kunming mice. The following applies: mouse, in vivo. As to the method: Mice ascites tumor s180 cells were conventionally incubated in 1640 culture medium, at 37° C., 5% CO2, and passaged once every two days in average. The cells in the logarithmic growth phase were prepared into a single-cell suspension having a density of 3.0×10^7 cells/ml with normal saline, which was injected into the abdominal cavities of mice under sterile conditions. Seven days after inoculation, significant swelling of the abdominal cavities of mice can be seen. As this time, the mice were executed by cervical vertebra luxation, put into a beaker containing 75% ethanol and soaked for 2-3 minutes. The sterilized mice were placed into an ultraclean bench, and the abdomens were exposed. The ascites was drawn with a sterile syringe and put into a sterile reagent bottle for further use. The above ascites was counted with trypan blue, diluted with normal saline to adjust to 2.0×10^7 cells/ml, and inoculated at the right armpit of the mice with 0.2 ml for each mouse.
The inoculated mice were randomly divided into 6 groups, with 10 animals in each group and half male and half female.
Docetaxel and icaritin were administered by tail intravenous injection with an administration volume of 10 ml/kg for each. Tegafur, Gimeracil and Oteracil Potassium Capsules was intragastrically administered with an administration volume of 40 ml/kg. Each group was administered once a day for totally 10 days. During the test, the animals were observed every day for their food and water uptake, survival conditions and behaviors, and measured for their body weights every day. After the test was ended, the mice were anaesthetized and anatomized. Blood was collected from abdominal aorta for routine blood test, and the total number of white blood cells, the total number of platelets and the total number of neutrophils were determined.

Series [2] deals with tumor-bearing mice (mice ascites tumor s180 cells). The series is described as follows: Effect on chemotherapy-induced bone marrow suppression in tumor-bearing mice (routine blood test). The following applies: after 10 days once daily, docetaxel 75 mg/m^2/d iv, Tegafur/Gimeracil/Oteracil capsules 222.2 mg/m^2/d intragastric, icaritin 10 mg/kg/d iv. In kind it is in vivo, Kunming mice. As to the method: Mice ascites tumor s180 cells were conventionally incubated in 1640 culture medium, at 37° C., 5% CO2, and passaged once every two days in average. The cells in the logarithmic growth phase were prepared into a single-cell suspension having a density of 3.0×10^7 cells/ml with normal saline, which was injected into the abdominal cavities of mice under sterile conditions. Seven days after inoculation, significant swelling of the abdominal cavities of mice can be seen. As this time, the mice were executed by cervical vertebra luxation, put into a beaker containing 75% ethanol and soaked for 2-3 minutes. The sterilized mice were placed into an ultraclean bench, and the abdomens were exposed. The ascites was drawn with a sterile syringe and put into a sterile reagent bottle for further use. The above ascites was counted with trypan blue, diluted with normal saline to adjust to 2.0×10^7 cells/ml, and inoculated at the right armpit of the mice with 0.2 ml for each mouse. The inoculated mice were randomly divided into 6 groups, with 10 animals in each group and half male and half female. Group 1, the model control group: the test animals were intraperitoneally injected with0.9% normal saline (same for the following experiments); Group 2, the docetaxel group: 75 mg/m^2/d of docetaxel; Group 3, the Tegafur, Gimeracil and Oteracil Potassium Capsules group: 222.2 mg/m^2/d of Tegafur, Gimeracil and Oteracil Potassium Capsules; Group 4, the icaritin group: 10 mg/kg/d of the icaritin microemulsion formulation; Group 5, the D+I group (docetaxel+icaritin group): 75 mg/m^2/d of docetaxel+[…] of icaritin; Group 6, the T +I group (Tegafur, Gimeracil and Oteracil Potassium Capsules+icaritin group): 222.2 mg/m^2/d of Tegafur, Gimeracil and Oteracil Potassium Capsules+10 mg/kg/d of icaritin. Docetaxel and icaritin were administered by tail intravenous injection with an administration volume of 10 ml/kg for each. Tegafur, Gimeracil and Oteracil Potassium Capsules was intragastrically administered with an administration volume of 40 ml/kg. Each group was administered once a day for totally 10 days. During the test, the animals were observed every day for their food and water uptake, survival conditions and behaviors, and measured for their body weights every day. After the test was ended, the mice were anaesthetized and anatomized. Blood was collected from abdominal aorta for routine blood test, and the total number of white blood cells, the total number of platelets and the total number of neutrophils were determined.

The test system of series [3] is active immune thrombocytopenia mice. The series is described as follows: Active immune thrombocytopenia in mice (platelets in peripheral blood). In kind it is in vivo, Balb/C mice. The following applies: 2 mg/kg (table), intragastric once a day, x ± s. As to the method:
72 Balb/C mice were selected, weighed, and randomly divided into […] administration groups, i.e. the normal group, the model control group, the icariin group (positive control group), and the icaritin administration groups (high-, medium-, and low-dose groups), with 12 mice in each group. […] On the second day after the model was established, each group was administered with the following therapeutic agents: The normal group: administered intragastrically with the same volume of normal saline; The model control group: administered intragastrically with the same volume of normal saline; The […]: […]; The high-dose icaritin group: […] Example 9; The medium-dose icaritin group: […] Example 9; The low-dose icaritin group: […] Each of the administration groups was administered once a day and fed normally. After establishing the model three times, each administration group was continued to be administered for one week. The mice were anesthetized, and blood was sampled to measure the number of platelets and determine the effect of icaritin on the number of platelets (PLT) in the peripheral blood.

Series [4] has as its system model of thrombocytopenia induced by cyclophosphamide in mice. The series is described as follows: Thrombocytopenia induced by cyclophosphamide in mice (platelets in peripheral blood). In kind it is in vivo, Balb/C mice. The following applies: cyclophosphamide 50 mg/kg ip model mice; 2 mg/kg sc once a day, 3 weeks; x ± s. The method, then: 72 Balb/C mice were selected, weighed, and randomly divided into 6 groups, i.e. the normal group, the model control group, the icariin group (positive control group), and the icaritin administration groups (high-, medium-, and low-dose groups), with 12 mice in each group. […] One week before starting to establish the model, each group was administered with the following therapeutic agents:
The normal group: administered subcutaneously with the same volume of normal saline;
The model control group: administered subcutaneously with the same volume of normal saline;
(§1) The icariin group: administered by subcutaneous injection with 2 mg/kg of icariin;
(§2) The high-dose icaritin group: administered by subcutaneous injection with 10 mg/kg of the icaritin injection of Example 11;
(§3) The medium-dose icaritin group: administered by subcutaneous injection with 5 mg/kg of the icaritin injection of Example 11;
(§4) The low-dose icaritin group: administered by subcutaneous injection with 1 mg/kg of the icaritin injection of Example 11.
Each group was administered once a day and fed normally. After consecutive administration for 3 weeks, the mice were anesthetized, and blood was sampled to measure the number of platelets and determine the effect of icaritin on the number of platelets (PLT) in the peripheral blood.

Series [5] deals with normal mice. The series can be described thus: Bleeding time in normal mice (tail tip cut). More on the design: unit not given here. The note with it: 2 mg/kg by injection, 3 days, 1 h after last administration. The format is in vivo, Kunming mice. The method, then: 100 Kunming mice were randomly divided into 5 groups, i.e. the blank control group (normal saline group), the icariin group (positive control group), the high-dose icaritin group, the medium-dose icaritin group, and the low-dose icaritin group. Each group was administered as follows. Blank control group: administered with the same volume of normal saline by subcutaneous injection; Icariin group: administered with 2 mg/kg of icariin by injection; High-dose icaritin group: administered with the injection of icaritin of Example 1 by subcutaneous injection at a dosage of 10 mg/kg; Medium-dose icaritin group: administered with the injection of icaritin of Example 1 by subcutaneous injection at a dosage of 5 mg/kg; Low-dose icaritin group: administered with the injection of icaritin of Example 1 by subcutaneous injection at a dosage of 1 mg/kg. Measurement of the bleeding time: The normal saline group (blank control group), the icariin group (positive control group), and the icaritin administration groups (high-, medium-, and low-dose groups) were designed as follows: 50 mice were selected, weighed, and randomly divided into 5 groups, with 10 mice in each group. The animals were administered consecutively for 3 days. At 1 h after the last administration, a filter paper was rolled to form a filter paper cartridge with a diameter similar to that of the mouse body, which was closed at one end. The mouse was allowed to climb into the cartridge. Then about 3 mm of tail tip of the mouse was cut with scissors. A stopwatch was started to record the time when the bleeding started. The tail tip of the mouse was point-contacted with a filter paper gently every 15 s until there was no blood or no blood can be seen.

In a further series the test system is chronic ITP model rats. The series can be described thus: Platelet count in chronic ITP model rats (anti-rat platelet serum). The format is in vivo, Wistar rats. The note with it: 2 mg/kg sc, 1 h after last administration. As to the method: Establishment of chronic ITP model: Wistar rats were selected to establish the model by injecting rabbit anti-rat platelet serum (APS). […] 50 Rats in which the model was successfully established were selected, weighed, and randomly divided into 5 groups, i.e. the model control group, the icariin group (positive control group), and the icaritin administration groups (high-, medium- and low-dose groups), with 10 rats in each group. The groups were administered with the following therapeutic agents, respectively.
The model control group: administered by subcutaneous injection with the same volume of normal saline;
as §1, §2, §3, §4
At 1 h after the last administration, blood was sampled from the venous plexus by inserting a disposable 20 μl blood collection tube into the inner canthus of the […].

The test system of series [6] is normal mice. The series can be described thus: Clotting time in normal mice (capillary method). The format is in vivo, Kunming mice. More on the design: unit not given here. The note with it: 2 mg/kg by injection, 3 days, 1 h after last administration. As to the method: 100 Kunming mice were randomly divided into 5 groups, i.e. the blank control group (normal saline group), the icariin group (positive control group), the high-dose icaritin group, the medium-dose icaritin group, and the low-dose icaritin group. Each group was administered as follows.
Blank control group: administered with the same volume of normal saline by subcutaneous injection;
Icariin group: administered with 2 mg/kg of icariin by injection;
High-dose icaritin group: administered with the injection of icaritin of Example 1 by subcutaneous injection at a dosage of 10 mg/kg;
Medium-dose icaritin group: administered with the injection of icaritin of Example 1 by subcutaneous injection at a dosage of 5 mg/kg;
Low-dose icaritin group: administered with the injection of icaritin of Example 1 by subcutaneous injection at a dosage of 1 mg/kg.
Measurement of the clotting time: The normal saline group (blank control group), the icariin group (positive control group), and the icaritin administration groups (high-, medium-, and low-dose groups) were designed as follows: 50 mice were selected, weighed and randomly divided into 5 groups, with 10 mice in each group. The animals were administered consecutively for 3 days. At 1 h after the last administration, blood was sampled from the venous plexus by inserting a disposable 20 μl blood collection tube into the inner canthus of the mouse to collect 20 μl of blood. A small fragment of capillary was broken off every 15 s for checking the occurrence of clotting filaments. The time from the blood sampling to the occurrence of fibrous protein filaments (clotting time) was recorded, and the results were shown in Table 5.

Marks after values point to notes of the source that are not given here.

Turning to `CC(=O)O[C@@]12CO[C@@H]1C[C@H](O)[C@@]1(C)C(=O)[C@H](O)C3=C(C)[C@@H](OC(=O)[C@H](O)[C@@H](NC(=O)OC(C)(C)C)c4ccccc4)C[C@@](O)([C@@H](OC(=O)c4ccccc4)[C@H]21)C3(C)C` [Docetaxel, reference compound], in series [1], the “Body weight Before Administration” value was found to be 21.2 ± 1.8 g. Further, in series [2], the Neutrophils is listed as 0.670 ± 0.12 10^9/L, the Platelets is recorded as 450.6 ± 30.5 10^9/L and the White blood cells is on record as 2.773 ± 0.46 10^9/L.
Turning to `COc1ccc(-c2oc3c(CC=C(C)C)c(O[C@@H]4O[C@H](CO)[C@@H](O)[C@H](O)[C@H]4O)cc(O)c3c(=O)c2O[C@@H]2O[C@@H](C)[C@H](O)[C@@H](O)[C@H]2O)cc1` [Icariin, reference compound], the PLT in series [3] was 850.6 ± 90.1** 10^9/L; in series [4], 550.6 ± 90.1** 10^9/L. Moreover, the “Bleeding Time” value with normal mice [5] was found to be 4.03 ± 0.45. Further, the Platelet count with chronic ITP model rats is listed as 571.8 ± 60.6 ×10^9. Further, in the series with normal mice [6], the “Clotting Time” value was 4.28 ± 0.61.
As to “Tegafur, Gimeracil and Oteracil Potassium Capsules”, in series [1], the “Body weight Before Administration” value is on record as 21.3 ± 2.3 g.
